Read-outs that look alike come from different tables or passages of the source.
Experiments:
Plasmodium falciparum = assay: blood stage hypoxanthine incorporation (HXI) cell assay; assay type: cell-based; conditions: read-out: Pf HXI pEC50 (converted)
Source text: [21] Full details on biochemical assay and anti-malarial hypoxanthine incorporation (cell based) assay procedures can be found in reference 16.

[1] = system: HepG2 human liver-derived cells; assay: in vitro cytotoxicity assay in HepG2 cells; assay type: cell-based; conditions: for EC50: Homo sapiens, read-out: HepG2 pEC50 (converted)
PfPKG = PfPKG (Plasmodium falciparum, UniProt Q8I719); assay: biochemical; conditions: for LLE (pIC50 – mLogD): PfPKG pIC50 minus measured logD; for IC50: biochemical assay, read-out: PfPKG pIC50 (converted)
PfPKG, sequence (Q8I719 whole entry): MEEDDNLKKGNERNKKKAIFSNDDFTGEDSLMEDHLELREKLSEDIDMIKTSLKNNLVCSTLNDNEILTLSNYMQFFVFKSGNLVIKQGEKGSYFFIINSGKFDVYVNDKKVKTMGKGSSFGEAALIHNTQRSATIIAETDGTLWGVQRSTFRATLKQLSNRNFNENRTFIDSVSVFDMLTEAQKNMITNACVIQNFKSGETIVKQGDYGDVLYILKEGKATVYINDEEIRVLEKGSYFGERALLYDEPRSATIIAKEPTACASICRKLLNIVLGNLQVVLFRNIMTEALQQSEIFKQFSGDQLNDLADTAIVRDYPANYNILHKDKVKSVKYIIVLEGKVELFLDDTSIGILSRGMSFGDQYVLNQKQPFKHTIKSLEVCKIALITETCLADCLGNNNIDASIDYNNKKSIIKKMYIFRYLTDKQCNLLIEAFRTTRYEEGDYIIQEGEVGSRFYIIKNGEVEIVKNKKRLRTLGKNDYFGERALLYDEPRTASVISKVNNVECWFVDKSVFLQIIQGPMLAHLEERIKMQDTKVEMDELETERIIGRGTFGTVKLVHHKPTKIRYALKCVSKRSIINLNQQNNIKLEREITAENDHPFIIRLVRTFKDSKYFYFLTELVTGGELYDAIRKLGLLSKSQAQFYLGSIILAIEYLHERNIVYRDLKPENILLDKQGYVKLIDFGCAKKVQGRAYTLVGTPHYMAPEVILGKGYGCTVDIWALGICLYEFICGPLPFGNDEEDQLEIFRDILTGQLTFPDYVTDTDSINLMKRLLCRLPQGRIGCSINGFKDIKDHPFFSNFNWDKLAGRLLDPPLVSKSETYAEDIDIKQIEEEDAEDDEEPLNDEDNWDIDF

[2] = mouse liver microsomal turnover; assay type: in vitro ADME; conditions: % remaining after 30 min incubation with mouse liver microsomes
Description: Microsomal turnover data was obtained using mouse liver microsomes (MLM) obtained from BD Biosciences. The compounds are pre-incubated at 37 °C for 5 minutes with the microsomes and the reaction was initiated by adding an equal volume of NADPH generating solution, also obtained from BD Biosciences. The final compound concentration in the incubation is 1 μM, and the microsomal protein concentration is 0.2 mg/mL. A sample is taken at t=0 and quenched with 2x volume of ice-cold methanol containing an internal standard reference compound (carbamazepine). The reaction is agitated at 37 °C for 30 minutes, when a further sample was taken and quenched in an identical fashion. The samples were centrifuged at 10000 rpm for 10 minutes and the supernatant taken for analysis in triplicate by LC-MS/MS (Agilent Technologies G6410 series, triple quadrupole with MM-ESI ion source) using optimised multiple reaction monitoring (MRM) scans and a standard column gradient on an Acquity UPLC BEH C8 1.7μm column, running acetonitrile and water with 0.05% acetic acid as the mobile phase. The % turnover is obtained by calculating the percentage difference of the peak areas, normalised to the internal standard, at t=0 and t=30. Verapamil is used as the standard compound for this assay.

PKG1α(h) = target: T1, PKG1α(h) (Homo sapiens, UniProt Q13976); assay: Millipore Kinase Profiler assay, PKG1α(h); assay type: biochemical; conditions: for pIC50: PKG1α(h); for activity against human orthologue of PKG: up to a top assay concentration of 1 µM
T1 construct: purchased Millipore (Kinase Profiler service, tested externally)
T1 sequence (Q13976 1-671): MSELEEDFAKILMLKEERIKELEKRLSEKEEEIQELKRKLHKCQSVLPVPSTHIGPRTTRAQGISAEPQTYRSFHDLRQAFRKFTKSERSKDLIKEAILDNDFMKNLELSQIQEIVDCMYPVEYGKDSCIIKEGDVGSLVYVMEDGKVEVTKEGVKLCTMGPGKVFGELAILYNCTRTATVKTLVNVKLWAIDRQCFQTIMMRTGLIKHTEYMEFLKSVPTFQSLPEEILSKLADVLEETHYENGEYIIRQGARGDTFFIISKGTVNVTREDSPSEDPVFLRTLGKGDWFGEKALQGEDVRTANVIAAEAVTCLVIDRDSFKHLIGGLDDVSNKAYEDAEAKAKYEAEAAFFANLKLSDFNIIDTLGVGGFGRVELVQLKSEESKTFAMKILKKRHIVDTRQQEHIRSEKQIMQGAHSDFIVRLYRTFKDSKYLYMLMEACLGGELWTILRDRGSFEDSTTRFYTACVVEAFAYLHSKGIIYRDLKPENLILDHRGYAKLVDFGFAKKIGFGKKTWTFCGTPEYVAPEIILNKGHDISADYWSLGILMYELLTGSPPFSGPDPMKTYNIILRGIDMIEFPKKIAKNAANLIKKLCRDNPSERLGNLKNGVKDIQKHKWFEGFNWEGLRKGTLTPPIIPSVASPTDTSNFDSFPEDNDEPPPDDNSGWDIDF

[3] = Measured logD (shake flask); assay type: physicochemical; conditions: for mLogD: octanol/PBS
PKG1β(h) = target: T2, PKG1β(h) (Homo sapiens, UniProt Q13976); assay: Millipore Kinase Profiler assay, PKG1β(h); assay type: biochemical; conditions: for pIC50: PKG1β(h); for activity against human orthologue of PKG: up to a top assay concentration of 1 µM
T2 construct: purchased Millipore (Kinase Profiler service, tested externally)
T2 sequence (Q13976 1-686 isoform Q13976-2): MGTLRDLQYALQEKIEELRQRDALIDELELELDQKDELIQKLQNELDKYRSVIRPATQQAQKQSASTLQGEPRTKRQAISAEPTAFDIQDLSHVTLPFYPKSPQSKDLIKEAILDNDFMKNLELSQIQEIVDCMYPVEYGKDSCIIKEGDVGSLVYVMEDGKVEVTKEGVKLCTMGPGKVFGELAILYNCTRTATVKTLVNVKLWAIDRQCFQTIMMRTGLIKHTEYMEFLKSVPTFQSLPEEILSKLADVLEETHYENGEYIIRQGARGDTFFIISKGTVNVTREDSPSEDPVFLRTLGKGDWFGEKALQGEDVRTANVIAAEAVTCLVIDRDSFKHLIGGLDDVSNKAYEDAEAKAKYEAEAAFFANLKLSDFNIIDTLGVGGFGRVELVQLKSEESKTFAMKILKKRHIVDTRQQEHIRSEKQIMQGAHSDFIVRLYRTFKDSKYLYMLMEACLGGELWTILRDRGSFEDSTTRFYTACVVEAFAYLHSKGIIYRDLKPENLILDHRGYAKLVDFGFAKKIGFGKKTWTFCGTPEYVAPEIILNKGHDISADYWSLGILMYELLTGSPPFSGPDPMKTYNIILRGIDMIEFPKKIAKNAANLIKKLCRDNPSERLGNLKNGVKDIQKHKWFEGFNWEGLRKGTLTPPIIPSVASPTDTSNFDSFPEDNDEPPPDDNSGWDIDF

human kinase panel = assay: Kinase selectivity profiling against a human kinase panel; assay type: biochemical; conditions: single 1 µM concentration
Description: [29] Kinase selectivity profiling was carried out at the MRC Protein Phosphorylation Unit at the University of Dundee, U.K. at a single concentration of 1 µM for all three compounds.

Kinetic solubility = assay type: physicochemical
Description: The kinetic solubility was measured by diluting a small amount of 10 mM DMSO stock into PBS pH7.4 in a filtration plate at a target concentration of 200 μM giving a final solution composition of 98:2 PBS:DMSO. Each compound was run in triplicate on the same plate with two standard compounds, verapamil and ketoconazole, included per plate. The filtration plate was shaken at 500 rpm for 90 minutes and then filtered under vacuum. The filtrate was sampled and diluted with a DMSO:PBS mixture in a flat bottomed UV plate to give a solution with a composition of PBS:DMSO 80:20. A dilution series for each compound was then created in flat bottomed UV plates in PBS:DMSO 80:20 with concentrations 200 μM, 100 μM, 50 μM, 25 μM, 12.5 μM & […]. The UV absorbance for these solutions was read across 230-400 nm at 1 nm intervals using a TECAN Safire II plate reader and a suitable UV wavelength chosen around the UV maximum of each compound.

[4] = blood stage hypoxanthine incorporation cell assay
[5] = HepG2, concentration at which half of cells remained viable at 48 h

EC50 (Plasmodium falciparum; [4]) [nM]	LLE (pIC50 – mLogD) (PfPKG)	IC50 (PfPKG) [nM]	MLM % rem [2] [%]	mLogD [3]	SMILES	other results
525	6.4	2.75	93	2.2	CNc1nccc(-c2c(-c3ccc(F)cc3)nc3cc(NCCN(C)C)ccn23)n1 [Compound 27]	in vitro cytotoxicity (in words) [1]: non-cytotoxic; EC50 [1, 5]: > 20000 nM; pIC50 (PKG1α(h)): < 6; activity against human orthologue of PKG (PKG1α(h)): no activity; pIC50 (PKG1β(h)): < 6; activity against human orthologue of PKG (PKG1β(h)): no activity; selectivity against human kinase panel (in words) (human kinase panel): excellent selectivity profile; Kin sol (Kinetic solubility; 90 min, pH 7.4): 207 µM
200	6.8	4.47	53	1.5	CN(C)Cc1ccn2c(-c3ccnc(Nc4ccc(N5CCNCC5)cc4)n3)c(C3CC3)nc2c1 [Compound 13]	in vitro cytotoxicity (in words) [1]: non-cytotoxic; EC50 [1, 5]: > 10000 nM; selectivity against human kinase panel (in words) (human kinase panel): decreased level of selectivity; Kin sol (Kinetic solubility; 90 min, pH 7.4): 189 µM
	5.7	12.6		2.2	CN(C)CCCNc1ccc2nc(-c3ccc(F)cc3)c(-c3ccnc(N)n3)n2c1 [Compound 21]	
851	6.0	8.51		2.1	CN1CCC(Nc2ccn3c(-c4ccnc(N)n4)c(-c4ccc(F)cc4)nc3c2)C1 (stereo not shown) [Compound 20]	
1000	5.8	20.4	65	1.9	CN(C)CCc1ccn2c(-c3ccnc(N)n3)c(-c3ccc(F)cc3)nc2c1 [Compound 29]	
263	5.4	3.31		3.1	CN1CCN(c2ccn3c(-c4ccnc(N)n4)c(-c4ccc(F)cc4)nc3c2)CC1 [Compound 22]	in vitro cytotoxicity (in words) [1]: did not
		57.5			Cc1nc2cc(CN(C)C)ccn2c1-c1ccnc(N)n1 [Compound 7]	
					CN(C)Cc1ccn2c(-c3ccnc(N)n3)c(-c3ccc(F)cc3)nc2c1 [Compound 2]	EC50 (Plasmodium falciparum): 363 nM; EC50 ([1]; HepG2, 48 h): > 20000 nM; pIC50 (PKG1α(h)): < 6; activity against human orthologue of PKG (PKG1α(h)): no activity; pIC50 (PKG1β(h)): < 6; activity against human orthologue of PKG (PKG1β(h)): no activity; Kin sol (Kinetic solubility; kinetic solubility, PBS pH7.4): 200 µM
	4.4	43.7		3.0	CC(C)Nc1nccc(-c2c(C3CC3)nc3cc(CN(C)C)ccn23)n1 [Compound 10]	
		148			CN(C)Cc1ccn2c(-c3ccnc(N)n3)c(C(F)(F)F)nc2c1 [Compound 8]	
	6.5	2.57	80	2.1	CN(C)CCNc1ccn2c(-c3ccnc(N)n3)c(-c3ccc(F)cc3)nc2c1 [Compound 26]	
	5.9	29.5			CN(C)Cc1cccn2c(-c3ccnc(N)n3)c(-c3ccc(F)cc3)nc12 [Compound 15]	logD at 12 h ([3]; octanol/phosphate buffered saline (PBS), read-out: mLogD): 1.6
347	6.2	3.63	88	2.2	CN1CCC(Nc2ccn3c(-c4ccnc(N)n4)c(-c4ccc(F)cc4)nc3c2)CC1 [Compound 24]	
871	5.8	2.63		2.8	CN1CCN(c2ccc3nc(-c4ccc(F)cc4)c(-c4ccnc(N)n4)n3c2)CC1 [Compound 23]	in vitro cytotoxicity (in words) [1]: significant activity
	5.0	51.3		2.3	CN(C)Cc1ccc2nc(-c3ccc(F)cc3)c(-c3ccnc(N)n3)n2c1 [Compound 16]	
813	5.9	7.41	54	2.2	CN(C)CCOc1ccn2c(-c3ccnc(N)n3)c(-c3ccc(F)cc3)nc2c1 [Compound 25]	
1740		8.71		2.5	CN(C)Cc1ccn2c(-c3ccnc(Nc4ccccn4)n3)c(C3CC3)nc2c1 [Compound 11]	
	5.8	35.5		1.7	CN(C)Cc1ccn2c(-c3ccnc(N)n3)c(C3CC3)nc2c1 [Compound 9]	
112	6.0	7.24		2.1	CN(C)Cc1ccn2c(-c3ccnc(Nc4ccc(N5CCN(C)CC5)cc4)n3)c(C3CC3)nc2c1 [Compound 12]	

SMILES	EC50 (Plasmodium falciparum; [4]) [nM]	LLE (pIC50 – mLogD) (PfPKG)	IC50 (PfPKG) [nM]	MLM % rem [2] [%]	mLogD [3]	other results
CN1CCN(c2ccc(Nc3nccc(-c4c(-c5ccc(F)cc5)nc5ccccn45)n3)cc2)CC1 [Compound 1]				65		EC50 (Plasmodium falciparum): 115 nM

— paper PMC6857626, “Potent bicyclic inhibitors of malarial cGMP-dependent protein kinase: approaches to combining improvements in cell potency, selectivity and structural novelty” (Bioorganic & Medicinal Chemistry Letters, 2019)
